# Assay results from US6358885B1, “Substituted phenylheterocyclic herbicides” (Mississippi State University, priority 1992, dated 2002).
# Tests used:
# Test in all cases: Test B preemergence/postemergence greenhouse plant response rating 0 to 10
# barnyardgrass = type: in vivo, Echinochloa crus-galli; conditions: for Plant response rating, Barnyardgrass: 0 to 10 scale
# Method in brief: (§1)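 Postemergence treatment of plants two to eighteen cm tall ran alongside preemergence treatment of planted seed, each using compound in a non-phytotoxic solvent.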
# cocklebur = type: in vivo, Xanthium pensylvanicum; conditions: for Plant response rating, Cocklebur: 0 to 10 scale
# Method in brief: as §1
# crabgrass = type: in vivo, Digitaria spp.; conditions: for Plant response rating, Crabgrass: 0 to 10 scale
# Method in brief: as §1
# giant foxtail = type: in vivo, Setaria faberii; conditions: for Plant response rating, Giant foxtail: 0 to 10 scale; for Plant response rating (0 to 10 scale), Giant foxtail: Rate 100 g/ha
# Method in brief: as §1
# lambsquarters = type: in vivo, Chenopodium album; conditions: for Plant response rating, Lambsquarter: 0 to 10 scale; for Plant response rating (0 to 10 scale), Lambsquarter: Rate 100 g/ha
# Method in brief: as §1
# wild buckwheat = type: in vivo, Polygonum convolvulus; conditions: for Plant response rating, Wild buckwheat: 0 to 10 scale; for Plant response rating (0 to 10 scale), Wild buckwheat: Rate 100 g/ha
# Method in brief: as §1
# wild oat = type: in vivo, Avena fatua; conditions: for Plant response rating, Wild oat: 0 to 10 scale; for Plant response rating (0 to 10 scale), Wild oat: Rate 100 g/ha
# Method in brief: as §1
# purple nutsedge = type: in vivo, Cyperus rotundus; conditions: for Plant response rating, Nutsedge: 0 to 10 scale; for Plant response rating (0 to 10 scale), Nutsedge: Rate 100 g/ha
# Method in brief: as §1
compound,measurement,setting,value
Clc1ccc(-c2nc3n(c2Br)CCCC3)c(Cl)c1 [Compound 2],"Plant response rating (0 to 10 scale), Barnyardgrass","barnyardgrass; POSTEMERGENCE, Rate 50 g/ha",3
same,"Plant response rating (0 to 10 scale), Barnyardgrass","barnyardgrass; POSTEMERGENCE, Rate 100 g/ha",3
same,"Plant response rating, Barnyardgrass","barnyardgrass; POSTEMERGENCE, Rate 200 g/ha",3
same,"Plant response rating, Barnyardgrass","barnyardgrass; POSTEMERGENCE, Rate 400 g/ha",5
same,"Plant response rating, Barnyardgrass","barnyardgrass; PREEMERGENCE, Rate 50 g/ha",0
same,"Plant response rating (0 to 10 scale), Barnyardgrass","barnyardgrass; PREEMERGENCE, Rate 100 g/ha",0
same,"Plant response rating, Barnyardgrass","barnyardgrass; PREEMERGENCE, Rate 400 g/ha",2
same,"Plant response rating, Barnyardgrass","barnyardgrass; Rate 200 g/ha, PREEMERGENCE",0
same,"Plant response rating (0 to 10 scale), Cocklebur","cocklebur; POSTEMERGENCE, Rate 50 g/ha",7
same,"Plant response rating (0 to 10 scale), Cocklebur","cocklebur; POSTEMERGENCE, Rate 100 g/ha",7
same,"Plant response rating, Cocklebur","cocklebur; POSTEMERGENCE, Rate 200 g/ha",6
same,"Plant response rating, Cocklebur","cocklebur; POSTEMERGENCE, Rate 400 g/ha",8
same,"Plant response rating, Cocklebur","cocklebur; PREEMERGENCE, Rate 50 g/ha",0
same,"Plant response rating (0 to 10 scale), Cocklebur","cocklebur; PREEMERGENCE, Rate 100 g/ha",0
same,"Plant response rating, Cocklebur","cocklebur; PREEMERGENCE, Rate 400 g/ha",0
same,"Plant response rating, Cocklebur","cocklebur; Rate 200 g/ha, PREEMERGENCE",0
same,"Plant response rating (0 to 10 scale), Crabgrass","crabgrass; POSTEMERGENCE, Rate 50 g/ha",3
same,"Plant response rating (0 to 10 scale), Crabgrass","crabgrass; POSTEMERGENCE, Rate 100 g/ha",3
same,"Plant response rating, Crabgrass","crabgrass; POSTEMERGENCE, Rate 200 g/ha",7
same,"Plant response rating, Crabgrass","crabgrass; POSTEMERGENCE, Rate 400 g/ha",7
same,"Plant response rating, Crabgrass","crabgrass; PREEMERGENCE, Rate 50 g/ha",0
same,"Plant response rating (0 to 10 scale), Crabgrass","crabgrass; PREEMERGENCE, Rate 100 g/ha",0
same,"Plant response rating, Crabgrass","crabgrass; Rate 200 g/ha, PREEMERGENCE",0
same,"Plant response rating, Giant foxtail","giant foxtail; POSTEMERGENCE, Rate 50 g/ha",4
same,"Plant response rating (0 to 10 scale), Giant foxtail",giant foxtail; POSTEMERGENCE,4
same,"Plant response rating, Giant foxtail","giant foxtail; POSTEMERGENCE, Rate 200 g/ha",5
same,"Plant response rating, Giant foxtail","giant foxtail; POSTEMERGENCE, Rate 400 g/ha",6
same,"Plant response rating, Giant foxtail","giant foxtail; PREEMERGENCE, Rate 50 g/ha",0
same,"Plant response rating (0 to 10 scale), Giant foxtail",giant foxtail; PREEMERGENCE,0
same,"Plant response rating, Giant foxtail","giant foxtail; PREEMERGENCE, Rate 400 g/ha",7
same,"Plant response rating, Giant foxtail","giant foxtail; Rate 200 g/ha, PREEMERGENCE",0
same,"Plant response rating, Lambsquarter","lambsquarters; POSTEMERGENCE, Rate 50 g/ha",9
same,"Plant response rating (0 to 10 scale), Lambsquarter",lambsquarters; POSTEMERGENCE,9
same,"Plant response rating, Lambsquarter","lambsquarters; POSTEMERGENCE, Rate 200 g/ha",9
same,"Plant response rating, Lambsquarter","lambsquarters; POSTEMERGENCE, Rate 400 g/ha",9
same,"Plant response rating, Lambsquarter","lambsquarters; PREEMERGENCE, Rate 50 g/ha",0
same,"Plant response rating (0 to 10 scale), Lambsquarter",lambsquarters; PREEMERGENCE,0
same,"Plant response rating, Lambsquarter","lambsquarters; Rate 200 g/ha, PREEMERGENCE",6
same,"Plant response rating, Wild buckwheat","wild buckwheat; POSTEMERGENCE, Rate 50 g/ha",10
same,"Plant response rating (0 to 10 scale), Wild buckwheat",wild buckwheat; POSTEMERGENCE,10
same,"Plant response rating, Wild buckwheat","wild buckwheat; POSTEMERGENCE, Rate 200 g/ha",10
same,"Plant response rating, Wild buckwheat","wild buckwheat; POSTEMERGENCE, Rate 400 g/ha",10
same,"Plant response rating, Wild buckwheat","wild buckwheat; PREEMERGENCE, Rate 50 g/ha",0
same,"Plant response rating (0 to 10 scale), Wild buckwheat",wild buckwheat; PREEMERGENCE,0
same,"Plant response rating, Wild buckwheat","wild buckwheat; PREEMERGENCE, Rate 400 g/ha",0
same,"Plant response rating, Wild buckwheat","wild buckwheat; Rate 200 g/ha, PREEMERGENCE",0
same,"Plant response rating, Wild oat","wild oat; POSTEMERGENCE, Rate 50 g/ha",2
same,"Plant response rating (0 to 10 scale), Wild oat",wild oat; POSTEMERGENCE,2
same,"Plant response rating, Wild oat","wild oat; POSTEMERGENCE, Rate 200 g/ha",3
same,"Plant response rating, Wild oat","wild oat; POSTEMERGENCE, Rate 400 g/ha",3
same,"Plant response rating (0 to 10 scale), Wild oat",wild oat; PREEMERGENCE,0
same,"Plant response rating, Wild oat","wild oat; PREEMERGENCE, Rate 400 g/ha",0
same,"Plant response rating, Wild oat","wild oat; Rate 200 g/ha, PREEMERGENCE",0
same,"Plant response rating, Nutsedge","purple nutsedge; POSTEMERGENCE, Rate 50 g/ha",0
same,"Plant response rating (0 to 10 scale), Nutsedge",purple nutsedge; POSTEMERGENCE,0
same,"Plant response rating, Nutsedge","purple nutsedge; POSTEMERGENCE, Rate 200 g/ha",0
same,"Plant response rating, Nutsedge","purple nutsedge; POSTEMERGENCE, Rate 400 g/ha",0
same,"Plant response rating, Nutsedge","purple nutsedge; PREEMERGENCE, Rate 50 g/ha",0
same,"Plant response rating (0 to 10 scale), Nutsedge",purple nutsedge; PREEMERGENCE,0
same,"Plant response rating, Nutsedge","purple nutsedge; PREEMERGENCE, Rate 400 g/ha",0
same,"Plant response rating, Nutsedge","purple nutsedge; Rate 200 g/ha, PREEMERGENCE",0
CCCOc1cc(-c2nn3c(c2Cl)CCCC3)c(F)cc1Cl [Compound 23],"Plant response rating (0 to 10 scale), Barnyardgrass","barnyardgrass; POSTEMERGENCE, Rate 50 g/ha",7
same,"Plant response rating, Barnyardgrass","barnyardgrass; POSTEMERGENCE, Rate 200 g/ha",9
same,"Plant response rating, Barnyardgrass","barnyardgrass; PREEMERGENCE, Rate 50 g/ha",4
same,"Plant response rating, Barnyardgrass","barnyardgrass; Rate 200 g/ha, PREEMERGENCE",6
same,"Plant response rating (0 to 10 scale), Cocklebur","cocklebur; POSTEMERGENCE, Rate 50 g/ha",8
same,"Plant response rating, Cocklebur","cocklebur; POSTEMERGENCE, Rate 200 g/ha",10
same,"Plant response rating, Cocklebur","cocklebur; PREEMERGENCE, Rate 50 g/ha",0
same,"Plant response rating, Cocklebur","cocklebur; Rate 200 g/ha, PREEMERGENCE",8
same,"Plant response rating (0 to 10 scale), Crabgrass","crabgrass; POSTEMERGENCE, Rate 50 g/ha",2
same,"Plant response rating, Crabgrass","crabgrass; POSTEMERGENCE, Rate 200 g/ha",6
same,"Plant response rating, Crabgrass","crabgrass; PREEMERGENCE, Rate 50 g/ha",2
same,"Plant response rating, Crabgrass","crabgrass; Rate 200 g/ha, PREEMERGENCE",9
same,"Plant response rating, Giant foxtail","giant foxtail; POSTEMERGENCE, Rate 50 g/ha",5
same,"Plant response rating, Giant foxtail","giant foxtail; POSTEMERGENCE, Rate 200 g/ha",7
same,"Plant response rating, Giant foxtail","giant foxtail; PREEMERGENCE, Rate 50 g/ha",6
same,"Plant response rating, Giant foxtail","giant foxtail; Rate 200 g/ha, PREEMERGENCE",9
same,"Plant response rating, Lambsquarter","lambsquarters; POSTEMERGENCE, Rate 50 g/ha",10
same,"Plant response rating, Lambsquarter","lambsquarters; POSTEMERGENCE, Rate 200 g/ha",10
same,"Plant response rating, Lambsquarter","lambsquarters; PREEMERGENCE, Rate 50 g/ha",10
same,"Plant response rating, Lambsquarter","lambsquarters; Rate 200 g/ha, PREEMERGENCE",10
same,"Plant response rating, Wild buckwheat","wild buckwheat; POSTEMERGENCE, Rate 50 g/ha",10
same,"Plant response rating, Wild buckwheat","wild buckwheat; POSTEMERGENCE, Rate 200 g/ha",10
same,"Plant response rating, Wild buckwheat","wild buckwheat; PREEMERGENCE, Rate 50 g/ha",0
same,"Plant response rating, Wild buckwheat","wild buckwheat; Rate 200 g/ha, PREEMERGENCE",10
same,"Plant response rating, Wild oat","wild oat; POSTEMERGENCE, Rate 50 g/ha",3
same,"Plant response rating, Wild oat","wild oat; POSTEMERGENCE, Rate 200 g/ha",5
same,"Plant response rating, Wild oat","wild oat; Rate 200 g/ha, PREEMERGENCE",6
same,"Plant response rating, Nutsedge","purple nutsedge; POSTEMERGENCE, Rate 50 g/ha",2
same,"Plant response rating, Nutsedge","purple nutsedge; POSTEMERGENCE, Rate 200 g/ha",3
same,"Plant response rating, Nutsedge","purple nutsedge; PREEMERGENCE, Rate 50 g/ha",0
same,"Plant response rating, Nutsedge","purple nutsedge; Rate 200 g/ha, PREEMERGENCE",0
